Source: patent US7030141B2, “Inhibitors of factor Xa and other serine proteases involved in the coagulation cascade” (priority 2001, dated 2006)

Tests used:
human factor Xa = target: T1, human factor Xa (Homo sapiens, UniProt P00742); assay: Determination of Factor Xa IC50 (cleavage of chromogenic substrate S2765); assay type: biochemical; settings: for Fxa 3 PM % Inhibition at 1 uM / Fxa 3 PM % Inhibition at 4 uM: 3 pM factor Xa; for Fxa 3 PM % Inhibition at 1 uM / inhibition at 1 µM: compound at 1 uM; for Fxa 3 PM % Inhibition at 4 uM: compound at 4 uM; for inhibition at 1 µM: 1 h, read-out: % at 1 uM (printed in column FXA 30 pM IC50), 30 pM factor Xa
T1 construct: purchased Enzyme Research Laboratories
Experimental: A. Determination of Factor Xa IC50
These concentrations were achieved by diluting a 21.087 μM stock solution of factor Xa in the appropriate amount of a buffer comprising 10 […], 0.1% BSA, pH 7.4 (HBSA buffer). Accordingly, 5 μL of the compound to be tested in DMSO (2% final) is added to the factor Xa/buffer solution and incubated for 60 minutes at room temperature.
The IC50 is determined by monitoring the increase in […] at 390 nm exicitation, 460 nm emission, with a 455 nm cutoff, in a fluorometric plate reader.

venous thrombosis = settings: rabbit model of venous thrombosis; cited from earlier work
[1] = system: clot lysis / acute reocclusion; settings: dog; cited from earlier work
arterial thrombosis = settings: canine coronary artery electrolytic lesion model; cited from earlier work
thrombus formation = settings: rat arteriovenous shunt and venous stasis models; cited from earlier work
[2] = system: arterial and venous thrombosis; settings: various models of arterial and venous thrombosis; cited from earlier work

T1 sequence (P00742 235-488 limits assumed): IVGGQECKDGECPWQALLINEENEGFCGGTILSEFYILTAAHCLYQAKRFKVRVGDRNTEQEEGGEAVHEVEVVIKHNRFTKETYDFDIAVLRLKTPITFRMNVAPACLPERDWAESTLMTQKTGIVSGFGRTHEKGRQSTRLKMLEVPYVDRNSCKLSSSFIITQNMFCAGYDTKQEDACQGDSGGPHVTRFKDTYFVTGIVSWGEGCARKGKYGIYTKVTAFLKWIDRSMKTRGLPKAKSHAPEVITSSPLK
T1 sequence (P00742 41-179 partner limits assumed): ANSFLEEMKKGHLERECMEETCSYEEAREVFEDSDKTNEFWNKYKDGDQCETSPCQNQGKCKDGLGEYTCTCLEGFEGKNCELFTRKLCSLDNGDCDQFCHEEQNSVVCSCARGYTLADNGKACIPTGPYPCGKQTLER

N#Cc1ccc(NC(=O)C2CCCN2C(=O)Nc2ccc(Cl)cc2)cc1 (stereo not drawn)
Fxa 3 PM % Inhibition at 1 uM (human factor Xa): 16.58%

CCc1ccc(NC(=O)N2CCCC2C(=O)Nc2ccc(-c3ccccc3S(N)(=O)=O)cc2F)cc1 (stereo not drawn)
Fxa 3 PM % Inhibition at 4 uM (human factor Xa): 38.14%

O=C(Nc1ccc(NC(=O)[C@H]2C[C@@H](O)CN2C(=O)Nc2ccc(Cl)cc2)cc1)C1CCCC1
inhibition at 1 µM (human factor Xa): 36%

NS(=O)(=O)c1ccccc1-c1ccc(NC(=O)C2CCCN2C(=O)Nc2ccc(F)c(Cl)c2)c(F)c1 (stereo not drawn)
Fxa 3 PM % Inhibition at 4 uM (human factor Xa): 41.07%

O=C(Nc1ccc(-c2nnn[nH]2)cc1)C1CCCN1C(=O)Nc1ccc(Cl)cc1 (stereo not drawn)
Fxa 3 PM % Inhibition at 1 uM (human factor Xa): 36.64%

O=C(Nc1ccc(-n2ccnn2)cc1)[C@H]1C[C@@H](O)CN1C(=O)Nc1ccc(Cl)cc1
inhibition at 1 µM (human factor Xa): 26%

NS(=O)(=O)c1ccccc1-c1ccc(NC(=O)[C@@H]2CCCN2C(=O)Nc2ccc(Cl)cc2)c(F)c1
Fxa 3 PM % Inhibition at 1 uM (human factor Xa): 46.5%

NS(=O)(=O)c1ccccc1-c1ccc(NC(=O)C2CCCN2C(=O)Nc2cccc(Cl)c2)c(F)c1 (stereo not drawn)
Fxa 3 PM % Inhibition at 4 uM (human factor Xa): 55.97%

CO[C@@H]1C[C@H](C(=O)Nc2ccc(N3CCC3=O)cc2F)N(C(=O)Nc2ccc(Cl)cn2)C1
inhibition at 1 µM (human factor Xa): 54%

CN(C)c1ccc(NC(=O)N2CCCC2C(=O)Nc2ccc(-c3ccccc3S(N)(=O)=O)cc2F)cc1 (stereo not drawn)
Fxa 3 PM % Inhibition at 4 uM (human factor Xa): 19.93%

NS(=O)(=O)c1ccccc1-c1ccc(NC(=O)C2CCCN2C(=O)Nc2cccc(C(F)(F)F)c2)c(F)c1 (stereo not drawn)
Fxa 3 PM % Inhibition at 4 uM (human factor Xa): 21.61%

N#Cc1ccc(NC(=O)N2CCCC2C(=O)Nc2ccc(-c3ccccc3S(N)(=O)=O)cc2F)cc1 (stereo not drawn)
Fxa 3 PM % Inhibition at 4 uM (human factor Xa): 51.86%

rTAP: "recombinant tick anticoagulant peptide (rTAP)", one of the "protein or polypeptide factor Xa inhibitors" (YNRLCIKPRDWIDECDSNEGGERAYFRNGKGGCDSFWICPEDHTGADYYSSYRDCFNACI; UniProt P17726 1-60, looked up)
fibrin deposition (venous thrombosis): reduce fibrin deposition | acute reocclusion [1]: prevent acute reocclusion | recombinant tissue plasminogen activator mediated clot lysis [1]: accelerate the recombinant tissue plasminogen activator mediated clot lysis | thrombus mass and time to occlusion (arterial thrombosis): reduce thrombus mass and time to occlusion

COc1cccc(NC(=O)N2CCCC2C(=O)Nc2ccc(-c3ccccc3S(N)(=O)=O)cc2F)c1 (stereo not drawn)
Fxa 3 PM % Inhibition at 4 uM (human factor Xa): 36.21%

CC(C)c1ccc(NC(=O)N2CCCC2C(=O)Nc2ccc(-c3ccccc3S(N)(=O)=O)cc2F)cc1 (stereo not drawn)
Fxa 3 PM % Inhibition at 4 uM (human factor Xa): 19.22%

CC(=O)c1cccc(NC(=O)N2CCCC2C(=O)Nc2ccc(-c3ccccc3S(N)(=O)=O)cc2F)c1 (stereo not drawn)
Fxa 3 PM % Inhibition at 4 uM (human factor Xa): 21.04%

NS(=O)(=O)c1ccccc1-c1ccc(NC(=O)C2CCCN2C(=O)Nc2ccc(C(F)(F)F)cc2)c(F)c1 (stereo not drawn)
Fxa 3 PM % Inhibition at 4 uM (human factor Xa): 25.1%

CC(=N)N1CC[C@H](Oc2ccc([C@H](Cc3ccc4ccc(C(=N)N)cc4c3)C(=O)O)cc2)C1 [DX9065a]
inhibition of thrombus formation (thrombus formation): inhibition of thrombus formation was achieved at doses that had little effect on APTT

NS(=O)(=O)c1ccccc1-c1ccc(NC(=O)C2CCCN2C(=O)Nc2ccccc2F)c(F)c1 (stereo not drawn)
Fxa 3 PM % Inhibition at 4 uM (human factor Xa): 37.21%

O=C(Nc1ccc(-c2cncnc2)cc1)[C@H]1C[C@@H](O)CN1C(=O)Nc1ccc(Cl)cc1
inhibition at 1 µM (human factor Xa): 32%

Cc1cc(Cl)ccc1NC(=O)N1CCCC1C(=O)Nc1ccc(-c2ccccc2S(N)(=O)=O)cc1F (stereo not drawn)
Fxa 3 PM % Inhibition at 4 uM (human factor Xa): 38.88%

NS(=O)(=O)c1ccccc1-c1ccc(NC(=O)C2CCCN2C(=O)Nc2ccc(Cl)c(Cl)c2)c(F)c1 (stereo not drawn)
Fxa 3 PM % Inhibition at 4 uM (human factor Xa): 41.71%

Cc1ccc(Cl)cc1NC(=O)N1CCCC1C(=O)Nc1ccc(-c2ccccc2S(N)(=O)=O)cc1F (stereo not drawn)
Fxa 3 PM % Inhibition at 4 uM (human factor Xa): 19.84%

B1: Antistasin: "a potent inhibitor of blood coagulation factor Xa from the Mexican leech, Haementeria officinalis" (protein, UniProt P15358 18-136, looked up)
Antistasin: QGPFGPGCEEAGCPEGSACNIITDRCTCSGVRCRMHCPHGFQRSRYGCEFCKCRLEPMKATCDISECPEGMMCSRLTNKCDCKIDINCRKTCPNGLKRDKLGCEYCECRPKRKLIPRLS
antithrombotic activity [2]: displays antithrombotic activity
